Data as given in patent publication US20160355483A1, “COMPOUND BINDING TO PPARG BUT NOT ACTING AS PROMOTER AND PHARMACEUTICAL COMPOSITION FOR TREATING PPARG-RELATED DISEASES CONTAINING SAME AS ACTIVE INGREDIENT” (Hyundai Pharm Co., Ltd., priority 2014, published 2016).

Molecular target: T1, PPARG (peroxisome proliferator activated receptor-gamma), GST-PPARG-LBD (Homo sapiens, UniProt P37231)
T1 construct: 15 μL of 5 nM GST-PPARG-LBD and 5 nM Tb-GST-antibody were added; purchased Invitrogen PV4894
T1 sequence (P37231 238-503 limits assumed): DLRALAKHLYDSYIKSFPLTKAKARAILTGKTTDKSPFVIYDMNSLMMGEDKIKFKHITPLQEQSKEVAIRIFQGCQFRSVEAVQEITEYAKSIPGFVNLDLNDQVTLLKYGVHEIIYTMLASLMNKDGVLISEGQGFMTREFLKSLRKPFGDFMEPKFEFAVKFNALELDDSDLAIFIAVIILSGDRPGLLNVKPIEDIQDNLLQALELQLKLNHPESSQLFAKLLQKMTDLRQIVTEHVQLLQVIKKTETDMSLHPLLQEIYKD
Assay: LanthaScreen TR-FRET PPARG Competitive Binding Assay
Design: key: “+” indicates the degree of the binding activity, and as the number of “+” increases, the binding activity is stronger; ++: “+” indicates the degree of the binding activity, and as the number of “+” increases, the binding activity is stronger; +++: “+” indicates the degree of the binding activity, and as the number of “+” increases, the binding activity is stronger; ++++: “+” indicates the degree of the binding activity, and as the number of “+” increases, the binding activity is stronger
Conditions: degree of binding activity
Method in brief: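 Ratio of 518 nm to 488 nm time-resolved emission after a 1 h room-temperature incubation, in competition format with GST-PPARG ligand-binding domain. Values are expressed as 100% minus compound-to-vehicle ratio and related to rosiglitazone binding.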

Row | SMILES | Binding assay (1 μLM)
1 | C[C@H](NC(=O)c1ccc2c(c1)CCCN2Cc1ccc(-c2ccccc2C(N)=O)cc1)c1ccccc1C(F)(F)F [Example 43, (S)-1-((2′-carbamoyl-[1,1′-biphenyl]-4-yl)methyl)-N-(1-(2-(trifluoromethyl)phenyl)ethyl)-1,2,3,4-tetrahydroquinoline-6-carboxamide] | ++
2 | O=C(NCc1ccc([N+](=O)[O-])cc1)c1ccc2c(c1)OCCN2Cc1ccc(-c2ccccc2C(=O)O)cc1 [Example 66, 4′-((7-((4-nitrobenzyl)carbamoyl)-2H-benzo[b][1,4]oxazine-4(3H)-yl)methyl)-[1,1′-biphenyl]-2-carboxylic acid] | +
3 | C[C@H](NC(=O)c1ccc2c(c1)CCCN2Cc1ccc(-c2ccccc2C(N)=O)cc1)c1cccc(OC(F)(F)F)c1 [Example 46, (S)-1-((2′-carbamoyl-[1,1′-biphenyl]-4-yl)methyl)-N-(1-(3-(trifluoromethoxy)phenyl)ethyl)-1,2,3,4-tetrahydroquinoline-6-carboxamide] | +++
4 | C[C@H](NC(=O)c1ccc2c(c1)OCCN2Cc1ccc(-c2ccccc2C(=O)O)cc1)c1ccc(SC(F)(F)F)cc1 [Example 77, (S)-4′-((7-((1-(4-((trifluoromethyl)thio)phenyl)ethyl)carbamoyl)-2H-benzo[b][1,4]oxazine-4(3H)-yl)methyl)-[1,1′-biphenyl]-2-carboxylic acid] | +++
5 | C[C@H](NC(=O)c1ccc2c(c1)CCCN2Cc1ccc(-c2ccccc2C(N)=O)cc1)c1cccc2ccccc12 [Example 38, (S)-1-((2′-carbamoyl-[1,1′-biphenyl]-4-yl)methyl)-N-(1-(naphthalene-1-yl)ethyl)-1,2,3,4-tetrahydroquinoline-6-carboxamide] | ++
6 | C[C@H](NC(=O)c1ccc2c(c1)OCCN2Cc1ccc(-c2ccccc2C(=O)O)cc1)c1ccc(C(C)(C)C)cc1 [Example 78, (S)-4′-((7-((1-(4-(tert-butyl)phenyl)ethyl)carbamoyl)-2H-benzo[b][1,4]oxazine-4(3H)-yl)methyl)-[1,1′-biphenyl]-2-carboxylic acid] | ++
7 | C[C@H](NC(=O)c1ccc2c(c1)CCCN2Cc1ccc(-c2ccccc2C(N)=O)cc1)c1ccccc1F [Example 42, (S)-1-((2′-carbamoyl-[1,1′-biphenyl]-4-yl)methyl)-N-(1-(2-fluorophenyl)ethyl)-1,2,3,4-tetrahydroquinoline-6-carboxamide] | +++
8 | NC(=O)c1ccccc1-c1ccc(CN2CCCc3cc(C(=O)NCc4ccccc4)ccc32)cc1 [Example 50, N-benzyl-1-((2′-carbamoyl-[1,1′-biphenyl]-4-yl)methyl)-1,2,3,4-tetrahydroquinoline-6-carboxamide] | +++
9 | C[C@H](NC(=O)c1ccc2c(c1)CCCN2Cc1ccc(-c2ccccc2C(=O)O)cc1)c1ccccc1 [Example 1, (S)-4′-((6-((1-phenylethyl)carbamoyl)-3,4-dihydroquinoline-1(2H)-yl)methyl)-[1,1′-biphenyl]-2-carboxylic acid] | +++
10 | C[C@H](NC(=O)c1ccc2c(c1)OCCN2Cc1ccc(-c2ccccc2C(=O)O)cc1)c1cccc(F)c1 [Example 84, (S)-4′-((7-((1-(3-fluorophenyl)ethyl)carbamoyl)-2H-benzo[b][1,4]oxazine-4(3H)-yl)methyl)-[1,1′-biphenyl]-2-carboxylic acid] | ++
11 | O=C(NCc1ccccc1)c1ccc2c(c1)OCCN2Cc1ccc(-c2ccccc2C(=O)O)cc1 [Example 67, 4′-((7-(benzylcarbamoyl)-2H-benzo[b][1,4]oxazine-4(38)-yl)methyl)-[1,1′-biphenyl]-2-carboxylic acid] | ++

The next lines start with the values.

Row | Binding assay (1 μLM) | SMILES
12 | ++ | C[C@H](NC(=O)c1ccc2c(c1)OCCN2Cc1ccccc1-c1ccc(C(=O)O)cc1)c1ccccc1 [Example 142, (S)-2′-((7-((1-phenylethyl)carbamoyl)-2H-benzo[b][1,4]oxazine-4(3H)-yl)methyl)-[1,1′-biphenyl]-4-carboxylic acid]
13 | + | C[C@H](NC(=O)c1ccc2c(c1)OCCN2Cc1ccccc1-c1ccc(C(N)=O)cc1)c1ccc(C#N)cc1 [Example 149, (S)-4-((4′-carbamoyl-[1,1′-biphenyl]-2-yl)methyl)-N-(1-(4-cyanophenyl)ethyl)-3,4-dihydro-2H-benzo[b][1,4]oxazine-7-carboxamide]
14 | +++ | C[C@H](NC(=O)c1ccc2c(c1)CCCN2Cc1ccc(-c2ccccc2C(=O)O)cc1F)c1ccc([N+](=O)[O-])cc1 [Example 109, (S)-3′-fluoro-4′-((6-((1-(4-nitrophenyl)ethyl)carbamoyl)-3,4-dihydroquinoline-1(2H)-yl)methyl)-[1,1′-biphenyl]-2-caboxylic acid]
15 | +++ | C[C@H](NC(=O)c1ccc2c(c1)CCCN2Cc1cc(-c2ccccc2C(N)=O)ccc1F)c1ccccc1 [Example 135, (S)-1-((2′-carbamoyl-4-fluoro-[1,1′-biphenyl]-3-yl)methyl)-N-(1-phenylethyl)-1,2,3,4-tetrahydroquinoline-6-carboxamide]
16 | + | O=C(NCc1ccncc1)c1ccc2c(c1)OCCN2Cc1ccc(-c2ccccc2C(=O)O)cc1 [Example 90, 4′-((7-((pyridine-4-ylmethyl)carbamoyl)-2H-benzo[b][1,4]oxazine-4(3H)-yl)methyl)-[1,1′-biphenyl]-2-carboxylic acid]
17 | +++ | Cc1ccc([C@H](C)NC(=O)c2ccc3c(c2)CCCN3Cc2cccc(-c3ccccc3C(N)=O)c2)cc1F [Example 125, (S)-1-((2′-carbamoyl-[1,1′-biphenyl]-3-yl)methyl)-N-(1-(3-fluoro-4-methylphenyl)ethyl)-1,2,3,4-tetrahydroquinoline-6-carboxamide]
18 | +++ | Cc1ccc([C@H](C)NC(=O)c2ccc3c(c2)CCCN3Cc2cccc(-c3ccccc3C(=O)O)c2F)cc1F [Example 130, (S)-2′-fluoro-3′-((6-((1-(3-fluoro-4-methylphenyl)ethyl)carbamoyl)-3,4-dihydroquinoline-1(2H)-yl)methyl)-[1,1′-biphenyl]-2-caboxylic acid]
19 | ++++ | C[C@H](NC(=O)c1ccc2c(c1)CCCN2Cc1ccc(-c2ccccc2C(=O)O)cc1F)c1ccccc1 [Example 106]
20 | +++ | C[C@H](NC(=O)c1ccc2c(c1)OCCN2Cc1ccc(-c2ccccc2C(N)=O)cc1)c1ccc(SC(F)(F)F)cc1 [Example 99, (S)-4-((2′-carbamoyl-[1,1′-biphenyl]-4-yl)methyl)-N-(1-(4-((trifluoromethyl)thio)phenyl)ethyl)-3,4-dihydro-2H-benzo[b][1,4]oxazine-7-carboxamide]
21 | ++++ | C[C@H](NC(=O)c1ccc2c(c1)CCCN2Cc1cccc(-c2ccccc2C(N)=O)c1F)c1ccc2ccccc2c1 [Example 132, (S)-1-((2′-carbamoyl-2-fluoro-[1,1′-biphenyl]-3-yl)methyl)-N-(1-(naphthalene-2-yl)ethyl)-1,2,3,4-tetrahydroquinoline-6-carboxamide]
22 | +++ | Cc1ccc([C@H](C)NC(=O)c2ccc3c(c2)CCCN3Cc2cccc(-c3ccccc3C(N)=O)c2F)cc1F [Example 133, (S)-1-((2′-carbamoyl-2-fluoro-[1,1′-biphenyl]-3-yl)methyl)-N-(1-(3-fluoro-4-methylphenyl)ethyl)-1,2,3,4-tetrahydroquinoline-6-carboxamide]
23 | + | Cc1ccc([C@H](C)NC(=O)c2ccc3c(c2)CCCN3Cc2ccccc2-c2ccc(C(N)=O)cc2)cc1F [Example 158, (S)-1-((4′-carbamoyl-[1,1′-biphenyl]-2-yl)methyl)-N-(1-(3-fluoro-4-methylphenyl)ethyl)-1,2,3,4-tetrahydroquinoline-6-carboxamide]
24 | ++ | C[C@H](NC(=O)c1ccc2c(c1)OCCN2Cc1ccccc1-c1ccc(C(N)=O)cc1)c1ccc([N+](=O)[O-])cc1 [Example 150, (S)-4-((4′-carbamoyl-[1,1′-biphenyl]-2-yl)methyl)-N-(1-(4-nitrophenyl)ethyl)-3,4-dihydro-2H-benzo[b][1,4]oxazine-7-carboxamide]
25 | +++ | C[C@H](NC(=O)c1ccc2c(c1)CCCN2Cc1ccc(-c2ccccc2C(N)=O)cc1F)c1ccc(C#N)cc1 [Example 112, (S)-1-((2′-carbamoyl-3-fluoro-[1,1′-biphenyl]-4-yl)methyl)-N-(1-(4-cyanophenyl)ethyl)-1,2,3,4-tetrahydroquinoline-6-carboxamide]
26 | ++ | Cc1ccc([C@H](C)NC(=O)c2ccc3c(c2)OCCN3Cc2ccccc2-c2ccc(C(=O)O)cc2)cc1F [Example 145, (S)-2′-((7-((1-(3-fluoro-4-methylphenyl)ethyl)carbamoyl)-2H-benzo[b][1,4]oxazine-4(3H)-yl)methyl)-[1,1′-biphenyl]-4-carboxylic acid]
